Assay results reported in publication PMC5785446 (Alcoholism, clinical and experimental research, 2018).

Legend:
wild-type mice = details: mouse, in vivo
C57BL/6J mice = details: mouse, in vivo
human MOP receptor = human MOP receptor (Homo sapiens, UniProt P35372); type: biochemical
Chain of human MOP receptor (P35372 whole entry): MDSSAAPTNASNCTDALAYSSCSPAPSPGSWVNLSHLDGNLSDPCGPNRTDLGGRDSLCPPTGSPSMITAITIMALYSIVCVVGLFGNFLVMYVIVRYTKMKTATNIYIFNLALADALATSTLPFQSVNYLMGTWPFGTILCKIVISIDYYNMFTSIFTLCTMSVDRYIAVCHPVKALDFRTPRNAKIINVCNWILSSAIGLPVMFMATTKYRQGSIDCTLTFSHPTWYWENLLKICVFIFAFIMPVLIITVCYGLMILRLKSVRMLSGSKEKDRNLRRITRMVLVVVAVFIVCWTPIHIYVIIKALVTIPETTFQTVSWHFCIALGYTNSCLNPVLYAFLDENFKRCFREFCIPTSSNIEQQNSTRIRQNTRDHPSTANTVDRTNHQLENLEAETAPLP

SMILES	motor sedative effect on conditioning days (wild-type mice)	effect on ethanol-induced CPP (C57BL/6J mice)	[35S]GTPγS MOP % Stim (human MOP receptor)
CCCC(C)C1(CC)C(=O)NC(=O)NC1=O (stereo not drawn) [pentobarbital]	robust motor sedative effect	did not alter the rewarding action of ethanol	–
C[C@@H](NC(=O)[C@@H](N)Cc1ccc(O)cc1)C(=O)NCC(=O)N(C)[C@@H](Cc1ccccc1)C(=O)NCCO [DAMGO]	–	–	100%
